What was measured:
[1] = literature: Wilson, O'Connor et al. 2010; cited from earlier work
IMR90 ER:RAS cells = assay: Senolytic activity under IRE1 inhibition with KIRA6; format: cell-based, human; details: 600 nM KIRA6 from day 4 post-induction; Compound 1 or 2 from day 7; read at day 12; FIGS. 15A-B
Experimental: High-throughput microscopy survival assay—To assess senolytic effect of drugs, cells were cultured for 7 days, culture media was changed to DM0.5 media and drugs in DMSO were added (<5% v/v final concentration), drugs were replenished after 3 days if assay length was longer than 72 h. Wells were fixed in 4% PFA for 1 hour at day 10 to 14, washed 3 times with PBS and then stained with 1 μg/mL DAPI (w/v, PBS) for 10 minutes. Wells were then washed 3 times with PBS. Optionally plates could be stored at 4° C. for up to 2 weeks and DAPI stained. Image acquisition of DAPI stained cells was performed on an automated InCell Analyser 2000 (GE Healthcare®) and high-content analysis on the InCell Investigator 2.7.3 software used to quantify number of DAPI positive cells per well. A top-hat method was used to segment cell-nuclei based on DAPI stained area and a minimum nuclear area threshold of 80 μm used to exclude debris. For cancer cell lines, nuclear area threshold was reduced to 40 μm. Survival was measured as cell counts relative to DMSO treated quiescent or senescent cells.
To investigate whether the activation of UPR caused by NMT inhibition in senescent cells was responsible for the senolytic potential of NMT inhibitors, cells were treated with KIRA6, a selective inhibitor of IRE1, a kinase necessary for the UPR. IMR90 ER:RAS cells undergoing senescence (after induction with 4OHT), were treated with 600 nM KIRA6 (an IRE1 inhibitor) on day 4 post-induction. On day 7 post-induction, cells were treated with Compound 1 or 2 and 600 nM KIRA6. […] Both NMT inhibitor and Kira6 were replenished 3 days after addition of NMT inhibitor (at day 10 post-induction). Data is shown as mean±SD, n represents independent biological experiments.

HCT116 = assay: Senescence induction by chemotherapeutic drugs (BrdU, SA-β-Galactosidase, p21CIP1); format: cell-based, human; details: 7 days after treatment, doxorubicin 100 nM, etoposide 2 μM, cisplatin 100 μM; for BrdU incorporation (cell division): FIG. 6A; for SA-β-Galactosidase activity / p21^CIP1 expression: FIGS. 6B-C
Experimental: (§1) IMR90 cells were used to generate inducible ER:RAS (hereinafter iRAS) cells to model Oncogene induced senescence (OIS), through retroviral infection of pLNC-ER:RAS-neo into IMR90 cells followed by selection with Neomycin. IMR90 cells containing the pLNC-ER:RAS plasmid backbone pLXSN were infected in parallel to assess leakiness in the pLNC-ER:RAS system. Treatment with 100 nM 4OHT (Sigma, in DMSO) was used to induce IMR90 ER:RAS cells to undergo oncogene induced senescence (OIS). Therapy induced senescence (TIS) was induced in IMR90 cells by treatment with 33 μM (50 ug/ml) bleomycin sulphate (Generon, HY-17565) for 24 hours, 20 μM palbociclib (Selleckchem, S1116) for 7 days or 100 nM doxorubicin (Cayman chemical, 15007) for 7 days. Senescence was induced in SK-HEP-1 cells by treatment with 2 μM etoposide (Sigma-Aldrich, E1383) for 7 days (FIGS. 4A-C). HCT-116 senescence was induced by 250 nM treatment with doxorubicin (Cayman chemical, 15007) for 48 hours followed by 5 days culture in media without chemotherapy (FIG. 5), or by treatment with 100 nM doxorubicin, 2 μM etoposide or 100 μM cisplatin for 3 days followed by 4 days culture in media without chemotherapy (FIGS. 6A-7C). Senescence was induced in MCF7 by 200 nM treatment with doxorubicin for 7 days, 2 μM etoposide for 7 days or 10 μM cisplatin for 7 days (FIGS. 8A-9C).
(§2) BrdU Incorporation—Cell proliferation was assessed through incorporation of nucleotide analogue 5-Bromo-2′-deoxyuridine (BrdU) into cells. 2×10^3 or 8×10^3 IMR90 cells were seeded into 96-well plates in duplicate for DMSO/palbociclib treated and bleomycin/doxorubicin treated cells respectively. 10 μM BrdU was added to cells 18 h before desired time point and wells were then washed in PBS and fixed using 4% paraformaldehyde (w/v, PBS) for 45 minutes to 1 hour before removal and washing 3 times with PBS. BrdU incorporation was assessed via immunofluorescence and high-content analysis (see section ‘Immunofluorescence & High throughput microscopy’).
(§3) Immunofluorescence staining was carried out by first fixing wells of 96 well plate at desired timepoint for 1 hour using 4% PFA (w/v, in PBS) followed by washing 3 times with PBS. Wells were then permeabilized using 0.2% Triton® X-100 (v/v, PBS) for 10 min or with 0.5% Triton® X-100 (v/v, PBS) for COPI staining. Wells were then washed twice with PBS to halt permeabilization and then non-specific antibody binding blocked by incubation with a blocking solution for 1 hour at RT. Blocking solution contained 1% BSA (w/v, PBS) supplemented with 0.4% Fish Skin Gelatin (v/v, PBS). Primary antibodies were diluted in respective blocking solution (see ‘Antibodies’ for dilutions), blocking solution removed from well and incubated with primary antibody solution for 1 hour at RT. For BrdU staining primary antibody solution is supplemented with 0.5 U/ul DNase (Sigma) and 1 mM MgCl2 and incubation times reduced to 30 minutes. Following incubation, primary antibody was then removed by washing 3 times with PBS. Secondary antibodies conjugated to Alexa-594 or Alexa-488 fluorophores were then diluted in blocking solution added to wells to be incubated in dark for 1 hour. Secondary antibody was then removed by washing 3 times with PBS and nuclei counterstaining with 1 μg/mL DAPI (w/v, PBS) for 10 minutes. Wells were then washed with PBS three times.
(§4) In a second experiment, HCT116 were treated with doxorubicin, etoposide or cisplatin (to induce senescence) or DMSO (as a control). 7 days after treatment, BrdU incorporation (to assess cell division), SA-β-Galactosidase activity and p21^CIP1 expression (as markers of senescence) were analysed. […] Media and compounds were replenished after 72 h of treatment and cultured for 48 h more before fixation and measurement of survival via high-throughput microscopy. DMSO/Doxorubicin/Etoposide (n=4), Cisplatin (n=1).

MCF7 cancer cells = assay: as above; format: cell-based; details: 7 days after treatment, doxorubicin 200 nM, etoposide 2 μM, cisplatin 10 μM; for BrdU incorporation (cell division): FIG. 8A; for SA-β-Galactosidase activity / p21^CIP1 expression: FIGS. 8B-C
Experimental: as §1, §2, §3
as §4, with “MCF7 cancer cells” for “In a second experiment, HCT116”, “treatment, analysed” for “treatment,”, “(n=3),” for “(n=4),”, “(n=2).” for “(n=1).”

SA-β-Galactosidase activity (HCT116) | p21^CIP1 expression (HCT116) | SMILES | Side effects [1] | Effect of KIRA6 on the senolytic activity of NMT inhibitors (IMR90 ER:RAS cells) | BrdU incorporation (cell division) (HCT116) | BrdU incorporation (cell division) (MCF7 cancer cells) | SA-β-Galactosidase activity (MCF7 cancer cells) | p21^CIP1 expression (MCF7 cancer cells)
– | – | CC1(C)CCC(c2ccc(Cl)cc2)=C(CN2CCN(c3ccc(C(=O)NS(=O)(=O)c4ccc(N[C@H](CCN5CCOCC5)CSc5ccccc5)c(S(=O)(=O)C(F)(F)F)c4)cc3)CC2)C1 [ABT-263] | significant neutropenia and thrombocytopenia | – | – | – | – | –
– | – | CC(C)(C)c1nc(-c2ccc(NC(=O)Nc3cccc(C(F)(F)F)c3)c3ccccc23)c2c(N)nccn12 [KIRA6, reference compound] | – | prevented the senolytic activity of NMT inhibitors | – | – | – | –
upregulated | upregulated | COc1cccc2c1C(=O)c1c(O)c3c(c(O)c1C2=O)C[C@@](O)(C(=O)CO)C[C@@H]3O[C@H]1C[C@H](N)[C@H](O)[C@H](C)O1 [doxorubicin] | – | – | stopped proliferating | stopped proliferating | upregulated | upregulated
upregulated | upregulated | COc1cc([C@@H]2c3cc4c(cc3[C@@H](O[C@@H]3O[C@@H]5CO[C@@H](C)O[C@H]5[C@H](O)[C@H]3O)[C@H]3COC(=O)[C@H]23)OCO4)cc(OC)c1O [etoposide] | – | – | stopped proliferating | stopped proliferating | upregulated | upregulated

SMILES | SA-β-Galactosidase activity (HCT116) | p21^CIP1 expression (HCT116) | Side effects [1] | Effect of KIRA6 on the senolytic activity of NMT inhibitors (IMR90 ER:RAS cells) | BrdU incorporation (cell division) (HCT116) | BrdU incorporation (cell division) (MCF7 cancer cells) | SA-β-Galactosidase activity (MCF7 cancer cells) | p21^CIP1 expression (MCF7 cancer cells)
N.N.[Cl][Pt][Cl] [cisplatin] | upregulated | upregulated | – | – | stopped proliferating | stopped proliferating | upregulated | upregulated

From patent US12691100B2, “NMT inhibitor treatment of a senescence-associated disease or disorder of the liver” (Imperial College Innovations Limited, priority 2020, dated 2026)
